# Data as given in patent US8569524B2, “Bis(tetrahydrofuran) compound, method for production of the compund, and use of the compound” (Glytech Inc., priority 2007, dated 2013).
# Test system: Pheochromocytoma (PC12) cells
# Assay: Neurite outgrowth activity test in PC12 cells in the presence of NGF
# Format: cell-based
# Settings: in the presence of DMSO and NGF (20 ng/ml), compared with the sample without compound, micrographs
# Procedure: When the solvent was ethanol, the concentrations were targeted at 1 mM, 0.1 mM, and […]. A sample at 1 mM concentration was prepared first. When the amount of sample was 1 mg, the sample was dissolved in 100% ethanol (1/molecular weight×1,000)/2 ml, and an equal amount of Milli-Q (1/molecular weight×1,000)/2 ml was added thereto, after which the sample was filtered through a […] into a sample tube.
# A sample at 0.1 mM concentration was prepared by diluting 1 mM solution 10-fold with 50% ethanol. Likewise, a sample at […] concentration was prepared from 0.1 mM solution.
# When the solvent was DMSO, the concentrations were targeted at 10 mM, 1 mM, and 0.1 mM.
# When the sample is prepared in ethanol, the sample is diluted 100-fold with the medium; and when the sample is prepared in DMSO, the sample is diluted 1,000-fold in the medium. The actual concentrations of the sample were thus […] both when the sample was prepared in ethanol and when the sample was prepared in DMSO.
# Measurement was carried out using the following equipment and software.
# Statistical processing of obtained data was carried out using “Origin ver. 7.0” (OriginLab, USA) and Mac Statistical Analysis. The significant difference was determined using Student's T-test and Dunnett's T-test.
# Pheochromocytoma (PC12) cells were purchased from the Health Science Research Resources Bank of the Japan Health Sciences Foundation. Cell number: JCRB0733, product name: PC-12.
# PC12 cells were cultivated in a medium having a composition including DMEM/10% HS, 5% FBS, 50 IU/ml penicillin, and […], in a culture flask coated with rat tail-derived collagen, in an incubator (95% humidity, 5% carbon dioxide). When the cell density becomes obviously too low, or when the cells overproliferate, the cells would be under load, requiring a longer time for proliferation and/or causing the cells to dye out. Thus, the cells were subcultured such that the cells would be present at a density of about 80% in the flask. When cells were subcultured or when activity evaluation tests were carried out, the cells were treated with trypsin (0.25%, 5 min.) to obtain a cell suspension, which was then seeded into a collagen-coated culture flask or plate.
# The condition of the PC12 cells was observed; it was confirmed that at least 50% of the PC12 cells were fused. The plate was coated with rat tail-derived collagen; on the following day, the plate was washed twice with Milli-Q water. Then, a medium having a composition including DMEM/10% HS, 5% FBS, 50 IU/ml penicillin, and […] was prepared.
# The medium in the culture flask was removed by suction. The PC12 cells were washed twice with PBS (5 mL), and trypsin (3 mL) was added thereto, which was then left to stand for about 5 minutes. A cell suspension was obtained by pipetting. In order to inhibit the activity of the trypsin, the cell suspension was transferred to a 50 mL centrifuge tube containing a serum-containing medium (2 mL). The total amount was adjusted to 10 mL with PBS, and the cell suspension was centrifuged (1,000 rpm×5 min). After centrifuging, the supernatant liquid was removed by suction using a pump, PBS (10 mL) was added thereto, and pipetting was carried out several times using a bent-tip Komagome pipette. After pipetting, the cell suspension was centrifuged again, and a similar operation was repeated twice. […]
SMILES,neurite outgrowth activity (1 μM compound),neurite outgrowth activity (10 μM compound)
CO[C@]1(C)C[C@@H]2OCC3=CCCCC32O1 (some centres unmarked) [Compound 1D-2-1],further enhanced neurite outgrowth activity,further enhanced neurite outgrowth activity
CO[C@@]1(C)C[C@@H]2OCC3=CCCCC32O1 (some centres unmarked) [Compound 1C-2-1],further enhanced neurite outgrowth activity,further enhanced neurite outgrowth activity
CCO[C@]1(C)C[C@@H]2OCC3=CCCC[C@]32O1 [Compound 1D-2-3],–,further enhanced neurite outgrowth activity
